Values quoted from earlier work, collected in US20060240399A1, “Long-term shelf preservation of cells and multicellular specimens by vitrification” (priority 1999, published 2006).

Tested on: Drosophila melanogaster embryos
Conditions: co-solute added to vitrification solution

Row | SMILES | effect on ethylene glycol permeation inside embryos
1 | OC[C@@H](O)[C@@H](O)[C@H](O)[C@@H](O)CO [sorbitol] | significantly diminished
2 | NCC(=O)O [glycine] | significantly diminished
3 | N[C@@H](CCC(=O)O)C(=O)O [glutamic acid] | significantly diminished
